Measurements published in the NIST ThermoML archive (doi:10.1021/je020185k).
Numbers after ± are expanded uncertainties.

Experiments:
[1] = Liquid; for mass density: 298.15 K, 101.33 kPa
[2] = xn = mol fraction of the nth substance listed; settings: 298.15 K, 101.3 kPa, Liquid

CC(C)(C)Cl [2-chloro-2-methylpropane]
Settings	mass density [kg/m3]
[1]	836.45 ± 0.46

Settings	Normal boiling temperature [°C]
[1], Ebulliometric method (Recirculating still)	50.73 ± 0.3

CC(C)(C)Cl [2-chloro-2-methylpropane] + C1COCCO1
[2]
Settings	mass density [kg/m3]
x2 = 0.0563	845.77 ± 0.49
x2 = 0.1059	853.89 ± 0.49
x2 = 0.2019	870.2 ± 0.49
x2 = 0.3134	889.71 ± 0.49
x2 = 0.4148	908.22 ± 0.5
x2 = 0.5097	926.46 ± 0.5
x2 = 0.6071	945.55 ± 0.5
x2 = 0.7113	966.4 ± 0.51
x2 = 0.8	984.5 ± 0.51
x2 = 0.9062	1006.81 ± 0.52
x2 = 0.9554	1017.73 ± 0.52

CCC(C)Cl (centres undefined) [2-chlorobutane]
Settings	mass density [kg/m3]
[1]	867.4 ± 0.47

Settings	Normal boiling temperature [°C]
[1], Ebulliometric method (Recirculating still)	68.11 ± 0.3

CCC(C)Cl (centres undefined) [2-chlorobutane] + C1COCCO1
[2]
Settings	mass density [kg/m3]
x2 = 0.0522	874.11 ± 0.49
x2 = 0.0886	878.88 ± 0.49
x2 = 0.1892	892.48 ± 0.49
x2 = 0.2923	907.06 ± 0.49
x2 = 0.3647	917.71 ± 0.5
x2 = 0.4928	937.42 ± 0.5
x2 = 0.6155	957.41 ± 0.51
x2 = 0.7149	974.47 ± 0.51
x2 = 0.8019	990.07 ± 0.51
x2 = 0.9068	1009.72 ± 0.52
x2 = 0.941	1016.33 ± 0.52

C1COCCO1 [1,4-dioxane]
[1]
Settings	Normal boiling temperature [°C]	mass density [kg/m3]
–	101.37 ± 0.3	1027.88 ± 0.52

CCCCCl [1-chlorobutane] + C1COCCO1
[2]
Settings	mass density [kg/m3]
x2 = 0.0422	885.61 ± 0.31
x2 = 0.0947	891.8 ± 0.31
x2 = 0.2055	905.35 ± 0.33
x2 = 0.2766	914.45 ± 0.34
x2 = 0.4083	932.02 ± 0.37
x2 = 0.4852	942.87 ± 0.39
x2 = 0.6082	961.08 ± 0.41
x2 = 0.6587	968.92 ± 0.43
x2 = 0.7939	990.92 ± 0.46
x2 = 0.894	1008.37 ± 0.49
x2 = 0.9509	1018.71 ± 0.51

CC(C)CCl [1-chloro-2-methylpropane] + C1COCCO1
[2]
Settings	mass density [kg/m3]
x2 = 0.0529	877.81 ± 0.49
x2 = 0.1009	883.95 ± 0.49
x2 = 0.2001	896.98 ± 0.49
x2 = 0.3003	910.79 ± 0.49
x2 = 0.3957	924.5 ± 0.5
x2 = 0.5022	940.58 ± 0.5
x2 = 0.5945	955.19 ± 0.51
x2 = 0.7005	972.78 ± 0.51
x2 = 0.7926	988.8 ± 0.51
x2 = 0.8978	1008.04 ± 0.52
x2 = 0.9371	1015.61 ± 0.52

CC(C)CCl [1-chloro-2-methylpropane]
Settings	mass density [kg/m3]
[1]	871.13 ± 0.47

Settings	Normal boiling temperature [°C]
[1], Ebulliometric method (Recirculating still)	68.90 ± 0.3

CCCCCl [1-chlorobutane]
Settings	mass density [kg/m3]
[1]	880.69 ± 0.27

Settings	Normal boiling temperature [°C]
[1], Ebulliometric method (Recirculating still)	78.37 ± 0.3
